The values that follow come from the OligoGym collection.

Oligonucleotides are written 5' to 3', each unit as a sugar letter and its base; * is a phosphorothioate linkage, no mark a phosphodiester; rarer units and linkages stand in square brackets, end groups in braces. Plain capitals give the bases only. d = 2'-deoxy (DNA); r = 2'-OH (RNA)
Further: test concentration or dose not given here.

For this data set, the target named is UBE2S. Briefly: reporter assay of Huesken 2005. To be noted: siRNA.
The substance “sense rGrArGrGrGrCrCrCrUrGrArGrGrGrGrArCrCrCdTdT / antisense rGrGrGrUrCrCrCrCrUrCrArGrGrGrCrCrCrUrCdGdA” had a normalised inhibition (eCFP-eYFP dual reporter) of 44.6%.

As to “sense rGrArGrGrGrGrCrUrGrArGrGrGrUrCrCrCrArUdTdT / antisense rArUrGrGrGrArCrCrCrUrCrArGrCrCrCrCrUrCdCdC”, the normalised inhibition (eCFP-eYFP dual reporter) was 45%.

Take “sense rGrArGrUrArUrGrCrArGrCrUrCrGrGrGrCrCrCdTdT / antisense rGrGrGrCrCrCrGrArGrCrUrGrCrArUrArCrUrCdCdT”: the normalised inhibition (eCFP-eYFP dual reporter) was 53.4%. Then “sense rGrArGrUrCrUrGrCrArCrUrCrArArCrGrArGrGdTdT / antisense rCrCrUrCrGrUrUrGrArGrUrGrCrArGrArCrUrCdGdG”, with 71.5%; and “sense rGrCrArCrUrCrArArCrGrArGrGrArGrGrCrGrGdTdT / antisense rCrCrGrCrCrUrCrCrUrCrGrUrUrGrArGrUrGrCdAdG”, with 48.5%; and “sense rGrCrArCrUrGrArArGrCrUrUrCrCrUrCrCrArCdTdT / antisense rGrUrGrGrArGrGrArArGrCrUrUrCrArGrUrGrCdCdA”, with 58.5%. The substance “sense rGrCrCrArGrUrGrGrCrArCrUrGrArArGrCrUrUdTdT / antisense rArArGrCrUrUrCrArGrUrGrCrCrArCrUrGrGrCdCdA” showed a normalised inhibition (eCFP-eYFP dual reporter) of 57.9%.

Turning to “sense rGrCrCrCrArGrCrGrGrCrArGrGrGrCrCrGrArAdTdT / antisense rUrUrCrGrGrCrCrCrUrGrCrCrGrCrUrGrGrGrCdCdC”, the normalised inhibition (eCFP-eYFP dual reporter) amounted to 42%. In turn, “sense rGrCrCrUrCrCrCrCrArCrCrCrArArGrGrGrCrUdTdT / antisense rArGrCrCrCrUrUrGrGrGrUrGrGrGrGrArGrGrCdAdG” came in with a normalised inhibition (eCFP-eYFP dual reporter) of 46.3%.

In turn, “sense rGrCrCrUrGrCrUrCrUrUrGrGrArGrArArCrUrAdTdT / antisense rUrArGrUrUrCrUrCrCrArArGrArGrCrArGrGrCdGdG” gave a normalised inhibition (eCFP-eYFP dual reporter) of 76%. Then “sense rGrCrUrGrGrGrGrArArGrGrArCrUrUrCrCrCrUdTdT / antisense rArGrGrGrArArGrUrCrCrUrUrCrCrCrCrArGrCdAdG”, with 53.9%; and “sense rGrGrArGrArArCrUrArCrGrArGrGrArGrUrArUdTdT / antisense rArUrArCrUrCrCrUrCrGrUrArGrUrUrCrUrCrCdAdA”, with 56.3%; and “sense rGrGrCrArUrCrArArGrGrUrCrUrUrUrCrCrCrAdTdT / antisense rUrGrGrGrArArArGrArCrCrUrUrGrArUrGrCrCdAdT”, with 57.3%. As for “sense rGrGrCrCrArArGrArArGrCrArUrGrCrUrGrGrCdTdT / antisense rGrCrCrArGrCrArUrGrCrUrUrCrUrUrGrGrCrCdAdT”, the figure is 57.2%; as for “sense rGrGrCrCrGrCrCrUrGrCrUrCrUrUrGrGrArGrAdTdT / antisense rUrCrUrCrCrArArGrArGrCrArGrGrCrGrGrCrCdCdG”, 69.4%; as for “sense rGrGrCrUrArCrUrUrCrCrUrGrArCrCrArArGrAdTdT / antisense rUrCrUrUrGrGrUrCrArGrGrArArGrUrArGrCrCdCdT”, 91.7%. Then “sense rGrGrGrCrCrCrUrGrGrCrCrArGrUrGrGrCrArCdTdT / antisense rGrUrGrCrCrArCrUrGrGrCrCrArGrGrGrCrCrCdGdA”, with 43%; and “sense rGrGrGrCrCrGrArArGrCrCrGrGrUrCrGrGrGrCdTdT / antisense rGrCrCrCrGrArCrCrGrGrCrUrUrCrGrGrCrCrCdTdG”, with 36.4%. In the case of “sense rGrGrGrCrUrGrArGrGrGrUrCrCrCrArUrGrGrCdTdT / antisense rGrCrCrArUrGrGrGrArCrCrCrUrCrArGrCrCrCdCdT”, the normalised inhibition (eCFP-eYFP dual reporter) came out at 45.7%. Then “sense rGrGrGrGrCrUrGrArGrGrGrUrCrCrCrArUrGrGdTdT / antisense rCrCrArUrGrGrGrArCrCrCrUrCrArGrCrCrCrCdTdC”, with 42.8%. On to “sense rGrGrUrGrArCrGrArCrArCrUrGrArCrCrGrCrAdTdT / antisense rUrGrCrGrGrUrCrArGrUrGrUrCrGrUrCrArCrCdTdC”, for which the normalised inhibition (eCFP-eYFP dual reporter) stood at 88.7%. As for “sense rGrUrArUrGrCrArGrCrUrCrGrGrGrCrCrCrGrUdTdT / antisense rArCrGrGrGrCrCrCrGrArGrCrUrGrCrArUrArCdTdC”, the figure is 47%; as for “sense rGrUrCrArCrCrArUrCrGrArGrGrGrCrCrCrUrGdTdT / antisense rCrArGrGrGrCrCrCrUrCrGrArUrGrGrUrGrArCdCdT”, 45.1%.

“sense rGrUrGrGrGrCrGrCrCrArArUrGrGrCrGrArGrAdTdT / antisense rUrCrUrCrGrCrCrArUrUrGrGrCrGrCrCrCrArCdGdT” had a normalised inhibition (eCFP-eYFP dual reporter) of 54.4%. Consider “sense rUrArArCrCrCrCrGrArGrUrCrUrGrCrArCrUrCdTdT / antisense rGrArGrUrGrCrArGrArCrUrCrGrGrGrGrUrUrAdGdG”, for which the normalised inhibition (eCFP-eYFP dual reporter) turned out to be 39.5%.

“sense rUrCrArCrCrArUrCrGrArGrGrGrCrCrCrUrGrAdTdT / antisense rUrCrArGrGrGrCrCrCrUrCrGrArUrGrGrUrGrAdCdC” yielded a normalised inhibition (eCFP-eYFP dual reporter) of 35.9%. Then “sense rUrCrCrArCrCrCrUrArArCrCrCrCrGrArGrUrCdTdT / antisense rGrArCrUrCrGrGrGrGrUrUrArGrGrGrUrGrGrAdTdC”, with 39.4%. With “sense rUrCrCrCrArArCrGrArGrGrArGrGrArCrCrUrCdTdT / antisense rGrArGrGrUrCrCrUrCrCrUrCrGrUrUrGrGrGrAdAdA”, the normalised inhibition (eCFP-eYFP dual reporter) is 35.7%. Then “sense rUrCrCrCrCrArCrCrCrArArGrGrGrCrUrArCrUdTdT / antisense rArGrUrArGrCrCrCrUrUrGrGrGrUrGrGrGrGrAdGdG”, with 48.9%; and “sense rUrCrUrGrUrUrCrCrGrCrArUrGrArArArCrUrCdTdT / antisense rGrArGrUrUrUrCrArUrGrCrGrGrArArCrArGrAdCdC”, with 42.3%. As for “sense rUrGrArArArCrUrCrCrUrGrCrUrGrGrGrGrArAdTdT / antisense rUrUrCrCrCrCrArGrCrArGrGrArGrUrUrUrCrAdTdG”, the figure is 54%; as for “sense rUrGrCrGrUrCrArArCrGrUrGrCrUrCrArArGrAdTdT / antisense rUrCrUrUrGrArGrCrArCrGrUrUrGrArCrGrCrAdGdA”, 74.5%. “sense rUrGrCrUrCrUrUrGrGrArGrArArCrUrArCrGrAdTdT / antisense rUrCrGrUrArGrUrUrCrUrCrCrArArGrArGrCrAdGdG” gave a normalised inhibition (eCFP-eYFP dual reporter) of 77.8%. Then “sense rUrGrGrArGrGrUrCrUrGrUrUrCrCrGrCrArUrGdTdT / antisense rCrArUrGrCrGrGrArArCrArGrArCrCrUrCrCrAdGdC”, with 58.5%; and “sense rUrGrGrCrGrArGrArUrCrUrGrCrGrUrCrArArCdTdT / antisense rGrUrUrGrArCrGrCrArGrArUrCrUrCrGrCrCrAdTdT”, with 85.6%.
